Test [1] addresses GSPT1 (Homo sapiens (Human), UniProt P15170+Q96SW2). The experiment in a line: GSPT1 reporter degradation assay (HEK293 hGSPT1 HiBiT-tagged cells). Type of test: cell-based. The following applies: 24 hour incubation. As for the experimental part:
HEK293_hGSPT1_HiBiT-tagged cells were generated using CRISPR-Cas12a technology. Briefly, ˜400,000 HEK293 cells were transiently co-transfected with precomplexed ribonuclear proteins (RNPs) consisting of 80 pmol of crRNA (IDT), 62 pmol of Cas12a protein (IDT), 3 μg of ssODN donor (IDT; AltR® modifications), 78 pmol of electroporation enhancer (IDT), and 200 ng of pMaxGFP (Lonza). The transfection was performed via nucleofection (Lonza, 4D-Nucleofector X-unit) using solution P3 and program CM-130 in a (20 μL) cuvette. Five days post-nucleofection, cells were single-cell-sorted for GFP+(transfected) cells by FACs in 96-well plates and clonally selected. Clones were screened and verified for the desired modification via targeted deep sequencing using gene-specific primers with partial Illumina adapter overhangs as previously described. In brief, clonal cell pellets were harvested, lysed, and used to generate gene-specific amplicons with partial Illumina adapters in PCR #1. Amplicons were indexed in PCR #2 and pooled with other targeted amplicons for other loci to create sequence diversity. Additionally, 10% PhiX sequencing control V3 (Illumina) was added to the pooled amplicon library prior to running the sample on a Miseq Sequencer System (Illumina) to generate paired 2×250 bp reads. Samples were demultiplexed using the index sequences, fastq files were generated, and NGS analysis was performed using CRIS.py. Final clones were authenticated using the PowerPlex fusion system (Promega) and tested negative for mycoplasma by the MycoAlert™Plus mycoplasma detection kit (Lonza).
Editing construct sequences and screening primers are outlined below (sequence from 5′ to 3′). hGSPT1Cas12acrRNA, CAGE635.GSPT1.g1: […] (SEQ ID NO: 4); CAGE635.g1.anti.ssODN: ttcctcacagtattgtgcagggtcatcaagaaaatgctta[…] CAGCCGCTCACgtcCttctctggaaccagtttcagaacttttccaattgcaatggtcttacctagaaatgaaattttaa (HiBiT tag and silent blocking modifications to prevent Cas12a recutting after integration are in upper case) (SEQ ID NO: 5); CAGE635.hGSPT1.DS.F: […] (SEQ ID NO: 6); CAGE635.hGSPT1.DS.R: GTGAA GTAGGCTTCTGCAGTC (SEQ ID NO: 7).
The GSPT1 degradation assay was carried out by harvesting the HEK 293T reporter cell lines and resuspending the cells in media formulated for reduced background fluorescence (FluoroBrite; Thermo Fisher). The respective cell lines were seeded at a density of 8,000 cells/well into white-opaque 384-well optical grade assay tissue culture plates (Greiner 781080-20). The cells were incubated overnight at 37° C. to allow for attachment to the assay plate. Dilutions of the compounds were prepared in DMSO from 10 mM compound stocks. Test compounds were added in a 10-point dilution series (typically 10 μM to […]) using a TECAN D300e Digital Dispenser with an upper limit of 0.5% final DMSO. Plates were centrifuged at 320×g for 2 minutes at room temperature, and subsequently incubated at 37° C.
After 24 hour incubation with the compounds, the plates were allowed to cool to room temperature for 10 minutes. 30 μL of HiBiT lytic buffer+1:50 HiBiT substrate Solution were added to each well. Plates were centrifuged at 320×g for 2 minutes at room temperature and then incubated with shaking at room temperature for 10 minutes covered with foil. Plates were read on a CLARIOstar microplate reader (BMG LabTech), measuring at 450 nm (donor emission) and 610 nm or 630 nm (acceptor emission). The DC50 values were determined by regression to best fit four-parameter logistic curves using GraphPad Prism.
A general note: With HiBiT, luminescence reflects the tagged protein that the partner subunit can reach.

Test [2] concerns the target human E3 ligase component cereblon (CRBN) (Homo sapiens (Human), UniProt Q96SW2). The experiment in a line: Cereblon (CRBN) target engagement, NanoBRET TE Intracellular E3 Ligase Assay in transfected HEK-293T cells. The note with it: read-out: CRBN Binding EC50. Put shortly:
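Live HEK-293T cells co-transfected overnight with NanoLuc-CRBN (CRBN at NanoLuc C-terminus) and DDB1 vectors (10:990 ng) were given CRBN tracer and an 11-point compound series for 2 h at 37° C. BRET read at 450/610 nm with extracellular NanoLuc inhibitor present; IC50 from four-parameter logistic fit.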

For orientation: DC50 means the concentration giving 50% degradation. For orientation: EC50 means the concentration giving half of the maximal effect.

human E3 ligase component cereblon (CRBN), sequence (Q96SW2 whole entry): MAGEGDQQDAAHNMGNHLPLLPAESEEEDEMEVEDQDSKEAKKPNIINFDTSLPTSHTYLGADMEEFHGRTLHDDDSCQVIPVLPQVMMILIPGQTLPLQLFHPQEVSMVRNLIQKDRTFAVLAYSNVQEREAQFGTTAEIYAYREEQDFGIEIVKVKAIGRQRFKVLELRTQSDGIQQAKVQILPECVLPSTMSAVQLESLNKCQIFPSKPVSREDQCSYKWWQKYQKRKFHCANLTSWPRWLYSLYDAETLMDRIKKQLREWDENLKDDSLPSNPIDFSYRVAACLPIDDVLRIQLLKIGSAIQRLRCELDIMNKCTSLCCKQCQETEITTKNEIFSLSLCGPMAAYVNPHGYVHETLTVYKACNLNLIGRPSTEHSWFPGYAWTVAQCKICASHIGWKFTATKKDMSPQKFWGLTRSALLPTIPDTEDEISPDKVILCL
human E3 ligase component cereblon (CRBN), sequence (Q16531 whole entry partner): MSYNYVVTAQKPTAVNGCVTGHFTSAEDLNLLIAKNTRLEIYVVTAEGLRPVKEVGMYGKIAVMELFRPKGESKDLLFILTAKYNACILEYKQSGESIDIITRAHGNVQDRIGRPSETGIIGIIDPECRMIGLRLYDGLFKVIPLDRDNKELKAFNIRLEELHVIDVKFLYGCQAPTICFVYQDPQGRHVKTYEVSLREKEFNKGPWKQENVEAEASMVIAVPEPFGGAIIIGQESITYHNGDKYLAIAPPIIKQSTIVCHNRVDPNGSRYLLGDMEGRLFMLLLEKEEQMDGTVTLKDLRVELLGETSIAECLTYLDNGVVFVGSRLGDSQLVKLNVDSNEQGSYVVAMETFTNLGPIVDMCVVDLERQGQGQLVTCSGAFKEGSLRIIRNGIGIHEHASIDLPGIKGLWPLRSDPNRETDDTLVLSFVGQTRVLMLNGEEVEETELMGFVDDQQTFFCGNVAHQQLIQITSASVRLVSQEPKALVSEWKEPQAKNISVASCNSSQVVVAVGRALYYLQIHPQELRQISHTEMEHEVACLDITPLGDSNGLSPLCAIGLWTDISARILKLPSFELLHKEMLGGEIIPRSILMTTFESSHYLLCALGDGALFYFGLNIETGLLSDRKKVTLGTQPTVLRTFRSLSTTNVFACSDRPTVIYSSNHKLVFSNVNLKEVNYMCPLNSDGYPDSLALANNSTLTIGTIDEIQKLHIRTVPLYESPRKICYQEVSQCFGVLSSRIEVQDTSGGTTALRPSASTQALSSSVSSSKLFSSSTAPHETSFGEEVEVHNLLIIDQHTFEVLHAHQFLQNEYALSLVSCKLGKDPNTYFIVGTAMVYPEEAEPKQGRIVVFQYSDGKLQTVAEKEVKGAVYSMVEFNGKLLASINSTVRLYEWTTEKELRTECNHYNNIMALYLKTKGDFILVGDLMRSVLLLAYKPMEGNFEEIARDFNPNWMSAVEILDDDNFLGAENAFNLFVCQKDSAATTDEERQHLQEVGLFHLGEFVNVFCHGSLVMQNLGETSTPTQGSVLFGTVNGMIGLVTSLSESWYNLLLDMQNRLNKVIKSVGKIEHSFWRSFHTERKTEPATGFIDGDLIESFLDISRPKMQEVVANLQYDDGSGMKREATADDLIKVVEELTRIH
GSPT1, sequence (P15170 whole entry): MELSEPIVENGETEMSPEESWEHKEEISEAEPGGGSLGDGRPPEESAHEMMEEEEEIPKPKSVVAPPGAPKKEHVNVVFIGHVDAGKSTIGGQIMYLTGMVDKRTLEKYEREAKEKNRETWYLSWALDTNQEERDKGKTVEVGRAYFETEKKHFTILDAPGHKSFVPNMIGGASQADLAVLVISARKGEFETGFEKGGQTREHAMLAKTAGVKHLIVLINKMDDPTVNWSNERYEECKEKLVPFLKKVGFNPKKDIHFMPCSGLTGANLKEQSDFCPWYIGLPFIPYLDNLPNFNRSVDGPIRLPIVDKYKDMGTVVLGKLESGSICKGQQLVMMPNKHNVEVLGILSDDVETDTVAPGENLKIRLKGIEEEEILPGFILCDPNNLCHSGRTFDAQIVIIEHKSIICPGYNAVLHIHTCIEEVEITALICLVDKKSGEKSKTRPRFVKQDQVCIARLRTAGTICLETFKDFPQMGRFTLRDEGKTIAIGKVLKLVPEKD
GSPT1, sequence (Q96SW2 whole entry): as the sequence (Q96SW2 whole entry) above
GSPT1, sequence (Q16531 whole entry partner): as the sequence (Q16531 whole entry partner) above

`O=C1CCC(N2Cc3cc(O[C@H]4CCCC[C@@H]4N4CC(c5cccc(OC(F)(F)F)c5)C4)ccc3C2=O)C(=O)N1` (stereo partly drawn) [Compound 35, 3-(1-oxo-5-(((1S,2S)-2-(3-(3-(trifluoromethoxy)phenyl)azetidin-1-yl)cyclohexyl)oxy)isoindolin-2-yl)piperidine-2,6-dione] displayed a 50% degradation concentration (DC50) in test [1] greater than 30000 nM. In test [2], the EC50 came out at 17 nM.

`O=C1CCC(N2Cc3cc(O[C@H]4CCCC[C@@H]4N4CC(c5ccccc5O)C4)ccc3C2=O)C(=O)N1` (stereo partly drawn) [Compound 133, 3-(5-(((1S,2S)-2-(3-(2-hydroxyphenyl)azetidin-1-yl)cyclohexyl)oxy)-1-oxoisoindolin-2-1)piperidine-2,6-dione]: in test [1], the half-maximal degradation concentration (DC50) was greater than 30000 nM. Moreover, the EC50 in test [2] is 14 nM.

The compound `O=C1CCC(N2Cc3cc(O[C@H]4CCCC[C@@H]4N4CC(c5cccc(F)c5)C4)ccc3C2=O)C(=O)N1` (stereo partly drawn) [Compound 111, 3-(5-(((1S,2S)-2-(3-(3-fluorophenyl)azetidin-1-yl)cyclohexyl)oxy)-1-oxoisoindolin-2-yl)piperidine-2,6-dione] registered a DC50 in test [1] greater than 30000 nM. Further, the EC50 in test [2] was determined as 6 nM.

In turn, `O=C1CC[C@@H](N2Cc3cc(O[C@H]4CCCC[C@@H]4N4CC(c5ccccc5)C4)ccc3C2=O)C(=O)N1` [Compound 125, (R)-3-(1-oxo-5-(((1S,2S)-2-(3-phenylazetidin-1-yl)cyclohexyl)oxy)isoindolin-2-yl)piperidine-2,6-dione] registered a DC50 in test [1] greater than 30000 nM. The half-maximal effective concentration (EC50) in test [2] worked out at 6 nM.

For `O=C1CCC(N2Cc3cc(O[C@H]4CCCC[C@@H]4N4CC(c5ccccc5)C4)c(F)cc3C2=O)C(=O)N1` (single isomer, unassigned) [Compound 52], the 50% degradation concentration (DC50) in test [1] is greater than 30000 nM. The EC50 in test [2] was determined as 11 nM.

In turn, `N#Cc1cc(Cl)ccc1C1CN([C@@H]2CCCC[C@@H]2Oc2ccc3c(c2)CN(C2CCC(=O)NC2=O)C3=O)C1` (mixture of isomers) [Compound 100, Rac-5-chloro-2-(1-((cis)-2-((2-(2,6-dioxopiperidin-3-yl)-1-oxoisoindolin-5-yl)oxy)cyclohexyl)azetidin-3-yl)benzonitrile] displayed a DC50 in test [1] greater than 30000 nM. In addition, in test [2], the EC50 amounted to 25 nM.

In the case of `O=C1CCC(N2Cc3c(ccc(O[C@H]4CCCC[C@@H]4N4CC(c5ccccc5)C4)c3F)C2=O)C(=O)N1` (single isomer, unassigned) [Compound 66], the DC50 in test [1] is greater than 30000 nM. The concentration giving a half-maximal response (EC50) in test [2] was 24 nM.

For `O=C1CCC(N2Cc3cc(O[C@H]4CCCCC[C@@H]4N4CC(c5ccccc5)C4)ccc3C2=O)C(=O)N1` (stereo partly drawn) [Compound 131, 3-(1-oxo-5-(((1S,2S)-2-(3-phenylazetidin-1-yl)cycloheptyl)oxy)isoindolin-2-yl)piperidine-2,6-dione], the 50% degradation concentration (DC50) in test [1] was greater than 30000 nM. In test [2], the EC50 was determined as 11 nM.

The compound `O=C1CCC(N2Cc3cc(O[C@H]4CCCC[C@@H]4N4CC(c5ccc(N6CCOCC6)cc5)C4)ccc3C2=O)C(=O)N1` (stereo partly drawn) [Compound 124, 3-(5-(((1S,2S)-2-(3-(4-morpholinophenyl)azetidin-1-yl)cyclohexyl)oxy)-1-oxoisoindolin-2-yl)piperidine-2,6-dione] returned a half-maximal degradation concentration (DC50) in test [1] greater than 30000 nM. For the same compound, the 50% effective concentration (EC50) in test [2] was found to be 2 nM.

In turn, `O=C1CCC(N2Cc3c(ccc(O[C@H]4CCCC[C@@H]4N4CC(c5ccccc5)C4)c3F)C2=O)C(=O)N1` (single isomer, unassigned) [Compound 65] came in with a DC50 in test [1] greater than 30000 nM. In test [2], the concentration for a half-maximal effect (EC50) was 52 nM.

In turn, `O=C1CCC(N2Cc3cc(O[C@H]4CCCC[C@@H]4N4CC(c5ccccc5C(F)(F)F)C4)ccc3C2=O)C(=O)N1` (stereo partly drawn) [Compound 129, 3-(1-oxo-5-(((1S,2S)-2-(3-(2-(trifluoromethyl)phenyl)azetidin-1-yl)cyclohexyl)oxy)isoindolin-2-yl)piperidine-2,6-dione] displayed a DC50 in test [1] greater than 30000 nM. In test [2], the concentration giving a half-maximal response (EC50) was determined as 17 nM.

In test [1], `O=C1CCC(N2Cc3cc(O[C@H]4CCCC[C@@H]4N4CC(c5ccccc5OC(F)(F)F)C4)ccc3C2=O)C(=O)N1` (stereo partly drawn) [Compound 36, 3-(1-oxo-5-(((1S,2S)-2-(3-(2-(trifluoromethoxy)phenyl)azetidin-1-yl)cyclohexyl)oxy)isoindolin-2-yl)piperidine-2,6-dione] registered a DC50 greater than 30000 nM. The EC50 in test [2] turned out to be 31 nM.

In test [1], `O=C1CCC(N2Cc3cc(O[C@H]4CCCC[C@@H]4N4CC(c5ccc(F)cc5)C4)ccc3C2=O)C(=O)N1` (single isomer, unassigned) [Compound 50] showed a half-maximal degradation concentration (DC50) greater than 30000 nM. The EC50 in test [2] came out at 4 nM.

`O=C1CCC(N2Cc3cc(O[C@H]4CCCC[C@@H]4N4CC(c5cccc(F)c5F)C4)ccc3C2=O)C(=O)N1` (stereo partly drawn) [Compound 64, 3-(5-(((1S,2S)-2-(3-(2,3-difluorophenyl)azetidin-1-yl)cyclohexyl)oxy)-1-oxoisoindolin-2-yl)piperidine-2,6-dione] yielded a DC50 in test [1] greater than 30000 nM. In addition, the 50% effective concentration (EC50) in test [2] was 11 nM.

Take `O=C1CCC(N2Cc3cc(O[C@H]4CCCC[C@@H]4N4CC(c5cccc(O)c5)C4)ccc3C2=O)C(=O)N1` (stereo partly drawn) [Compound 134, 3-(5-(((1S,2S)-2-(3-(3-hydroxyphenyl)azetidin-1-yl)cyclohexyl)oxy)-1-oxoisoindolin-2-yl)piperidine-2,6-dione]: in test [1], the DC50 was greater than 30000 nM. The 50% effective concentration (EC50) in test [2] came to 12 nM.

In turn, `O=C1CCC(N2Cc3cc(O[C@H]4CCCC[C@@H]4N4CC(c5ccc(O)cc5)C4)ccc3C2=O)C(=O)N1` (stereo partly drawn) [Compound 132, 3-(5-(((1S,2S)-2-(3-(4-hydroxyphenyl)azetidin-1-yl)cyclohexyl)oxy)-1-oxoisoindolin-2-yl)piperidine-2,6-dione] registered a DC50 in test [1] greater than 30000 nM. In addition, the EC50 in test [2] was 11 nM.

In turn, `O=C(O)CC(O)(CC(=O)O)C(=O)O.O=C1CCC(N2Cc3cc(O[C@H]4CCCC[C@@H]4N4CC(c5ccccc5)C4)ccc3C2=O)C(=O)N1` (stereo partly drawn) [Compound 130, 3-(1-oxo-5-(((1S,2S)-2-(3-phenylazetidin-1-yl)cyclohexyl)oxy)isoindolin-2-yl)piperidine-2,6-dione 2-hydroxypropane-1,2,3-tricarboxylate] yielded a 50% degradation concentration (DC50) in test [1] greater than 30000 nM. In addition, the concentration for a half-maximal effect (EC50) in test [2] was found to be 4 nM.

Source of the values: US20240246935A1 (Plexium, Inc., priority 2021, published 2024).
